US20250332147A1, “Methods of Treating Multiple Sclerosis” (Vanda Pharmaceuticals Inc., priority 2021, published 2025)

Tests used:
[1] = system: patients with relapsing multiple sclerosis (RMS); assay: OPTIMUM phase 3 study (NCT02425644): systemic corticosteroid (SCS) use for treatment of relapse, ponesimod 20 mg vs teriflunomide 14 mg; format: in vivo, human; conditions: for proportion of patients who received ≥1 SCS therapy for treatment of relapse / least squares mean of accumulated steroid dose (prednisone equivalent doses) for treatment of relapse: full analysis set; for proportion of patients who received ≥1 SCS therapy for treatment of relapse: between study treatment start and EOS, PON 20 mg vs TER 14 mg, P<0.0001
Experimental: Subjects were evaluated according to the treatment they were randomized to. • Primary efficacy variable/primary timepoint: The primary endpoint was annualized relapse rate (ARR) up to the end of study (EOS) defined as the number of confirmed relapses per subject-year. All available data up to EOS, regardless of treatment discontinuation was included (ITT approach). Co-Administration of Ponesimod with Corticosteroids
OPTIMUM was a phase 3, double-blind, randomized clinical trial that evaluated the efficacy, safety, and tolerability of PON (20 mg) versus TER (14 mg) in patients with RMS.
Patients with RMS aged 18 to 55 years with a relapsing course (i.e., RMS or secondary progressive MS with superimposed relapses), an Expanded Disability Status Scale (EDSS) score of 0-5.5, and recent clinical or magnetic resonance imaging activity were enrolled.
Patients were excluded from the primary analysis if they received treatment with SCS, unless it was for a multiple sclerosis (MS) relapse or short-term treatment of pulmonary conditions.
In this analysis, the proportions of patients in each treatment group who received concomitant treatment with ≥1 SCS to treat MS relapse between the start of study treatment and end of study (EOS) were compared. In addition, the mean accumulated steroid dose (prednisone equivalent doses in mg) administered to treat relapse between start of study treatment and EOS and between end of treatment (EOT) plus follow-up time was assessed.
Data are shown for analyses of the full analysis set and analyses stratified by baseline EDSS score (baseline EDSS score≤3.5 versus >3.5), prior MS treatment (disease modifying treatment [DMT] within the past 2 years versus no DMT within the past 2 years), or sex (male versus female).
The proportion of patients who received ≥1 SCS therapy for treatment of relapse is provided by treatment group; group differences were examined using Cochran-Mantel Haenszel (CMH) test and stratified by baseline EDSS and prior treatment with DMT.
The between-group difference for the mean accumulated steroid dose for treatment of relapse was evaluated using analysis of covariance models with accumulated steroid dose as the dependent variable, treatment as factor, and EDSS baseline group, and prior treatment with disease-modifying therapy within 2 years prior to randomization as covariates. EDSS baseline group was removed from the model for analyses stratified by baseline EDSS score.

[2] = system: peripheral blood lymphocyte count; conditions: cited from earlier work
[3] = in vivo; cited from earlier work
[4] = from start of study treatment to EOS, P=0.0005
[5] = from start of study treatment to EOT+7 days of follow up, P=0.0007

SMILES | reduction of annualized relapse rate (ARR) ([1]; PON 20 mg vs teriflunomide (TER) 14 mg, patients with RMS) | proportion of patients who received ≥1 SCS therapy for treatment of relapse [1] [%] | least squares mean of accumulated steroid dose (prednisone equivalent doses) for treatment of relapse [1, 4] [mg] | least squares mean of accumulated steroid dose (prednisone equivalent doses) for treatment of relapse [1, 5] [mg] | proportion of patients who received ≥1 SCS therapy, stratified by baseline disability ([1]; only among patients with baseline EDSS≤3.5, compared with teriflunomide group) | peripheral blood lymphocyte count ([2]; blocking the egress of lymphocytes from lymphoid organs) | monocyte, natural killer (NK) cell and neutrophil counts ([2]; in vivo) | elimination from plasma [3]
CCC/N=C1\S/C(=C\c2ccc(OC[C@H](O)CO)c(Cl)c2)C(=O)N1c1ccccc1C [PON, (R)-5-[3-chloro-4-(2,3-dihydroxy-propoxy)-benz[Z]ylidene]-2-([Z]-propylimino)-3-o-tolyl-thiazolidin-4-one] | superior efficacy | 29.1 | 3207.1 | 2977.1 | significantly smaller proportion | rapid, dose-dependent, and reversible reduction | not reduced | –
C/C(O)=C(\C#N)C(=O)Nc1ccc(C(F)(F)F)cc1 [TER] | – | 40.10 | 4257.2 | 3957.4 | – | – | – | eliminated slowly
